Experimental data as given in publication PMC12073449, “Development of a Mechanism of Action-Reflective Cell-Based Reporter Gene Assay for Measuring Bioactivities of Therapeutic Glucagon-like Peptide-2 Analogues” (Molecules, 2025).
Ends that are not written are not given here.

Test system: HEK293-GLP-2R-Luc cells

Substance: HGEGTFSSELATILDALAARDFINWLIATKITDKKKKKK-NH2 [glepaglutide]
- log2 (TD/Ctrl) CYP1B1: 1.052
- log2 (TD/Ctrl) CYP4V2: −1.198
- log2 (TD/Ctrl) CYP4 × 1: −1.963
- log2 (TD/Ctrl) TRPV1 (Qvalue 0.001125): −1.038
- log2 (TD/Ctrl) NEK8 (Qvalue 0.001147): −1.057
- log2 (TD/Ctrl) METTL25 (Qvalue 0.001214): −1.045
- log2 (TD/Ctrl) ITGA8 (Qvalue 0.001396): −1.102
- log2 (TD/Ctrl) UBOX5 (Qvalue 0.00141): 1.051
- log2 (TD/Ctrl) CC2D2A (Qvalue 0.001438): −1.1174
- log2 (TD/Ctrl) DERL3 (Qvalue 0.001478): −1.237
- log2 (TD/Ctrl) ADAM12 (Qvalue 0.001549): 1.112
- log2 (TD/Ctrl) RBPMS2 (Qvalue 0.001565): 1.069
- log2 (TD/Ctrl) RBM11 (Qvalue 0.001608): 1.143
- log2 (TD/Ctrl) SLCO2A1 (Qvalue 0.001637): 1.773
- log2 (TD/Ctrl) AMH (Qvalue 0.001638): −1.122
- log2 (TD/Ctrl) EMP1 (Qvalue 0.001666): 1.518
- log2 (TD/Ctrl) RNLS (Qvalue 0.001684): 2.251
- log2 (TD/Ctrl) AATK (Qvalue 0.001714): 1.156
- log2 (TD/Ctrl) ZSWIM4 (Qvalue 0.001797): 1.054
- log2 (TD/Ctrl) NGEF (Qvalue 0.001858): 1.549
- log2 (TD/Ctrl) LOC124901228 (Qvalue 0.002022): −1.299
- log2 (TD/Ctrl) HILPDA (Qvalue 0.00213): −1.215
- log2 (TD/Ctrl) GPRASP3 (Qvalue 0.002224): −1.474
- log2 (TD/Ctrl) SRGAP3 (Qvalue 0.002313): −1.063
- log2 (TD/Ctrl) PPEF1 (Qvalue 0.002369): 1.543
- log2 (TD/Ctrl) BOK (Qvalue 0.002402): 1.599
- log2 (TD/Ctrl) PRR7 (Qvalue 0.002734): 1.209
- log2 (TD/Ctrl) SAT1 (Qvalue 0.002832): 2.416
- log2 (TD/Ctrl) SDHAF4 (Qvalue 0.002952): 1.018
- log2 (TD/Ctrl) IL7R (Qvalue 0.003482): 2.4
- log2 (TD/Ctrl) RHOB (Qvalue 0.003482): 2.852
- log2 (TD/Ctrl) CCDC61 (Qvalue 0.003634): 1.663
- log2 (TD/Ctrl) H2BC21 (Qvalue 0.004109): 1.259
- log2 (TD/Ctrl) CXCL12 (Qvalue 0.004272): −2.422
- log2 (TD/Ctrl) UGT3A1 (Qvalue 0.004706): 3.069
- log2 (TD/Ctrl) MYPN (Qvalue 0.005296): 2.401
- log2 (TD/Ctrl) PTPRN (Qvalue 0.005327): 3.046
- log2 (TD/Ctrl) RHBDF1 (Qvalue 0.005404): 1.083
- log2 (TD/Ctrl) KLF2 (Qvalue 0.005739): 1.928
- log2 (TD/Ctrl) SH2D2A (Qvalue 0.005953): 2.922
- log2 (TD/Ctrl) SYT4 (Qvalue 0.005991): 2.338
- log2 (TD/Ctrl) NTRK2 (Qvalue 0.006147): 1.454
- log2 (TD/Ctrl) PLPP2 (Qvalue 0.006233): 1.309
- log2 (TD/Ctrl) ATG16L2 (Qvalue 0.006489): 1.087
- log2 (TD/Ctrl) ASGR1 (Qvalue 0.00679): 2.135
- log2 (TD/Ctrl) DHRS9 (Qvalue 0.007207): 2.367
- log2 (TD/Ctrl) SH2D5 (Qvalue 0.00738): 1.053
- log2 (TD/Ctrl) SLC30A3 (Qvalue 0.007467): 1.182
- log2 (TD/Ctrl) SHANK2 (Qvalue 0.007984): 2.035
- log2 (TD/Ctrl) NAA80 (Qvalue 0.008009): 1.249
- log2 (TD/Ctrl) CLIP2 (Qvalue 0.008212): 1.052
- log2 (TD/Ctrl) LOC128125822 (Qvalue 0.008527): 2.711
- log2 (TD/Ctrl) RND1 (Qvalue 0.008622): 1.057
- log2 (TD/Ctrl) SH3RF2 (Qvalue 0.008648): 1.516
- log2 (TD/Ctrl) DUSP2 (Qvalue 0.008669): 3.424
- log2 (TD/Ctrl) MAGED4 (Qvalue 0.009809): −1.159
- log2 (TD/Ctrl) MAP6 (Qvalue 0.009857): 1.691
- log2 (TD/Ctrl) TMEM225B (Qvalue 0.010366): 1.448
- log2 (TD/Ctrl) CHRD (Qvalue 0.010428): 1.261
- log2 (TD/Ctrl) FNTB (Qvalue 0.011191): −1.039
- log2 (TD/Ctrl) MARVELD3 (Qvalue 0.011267): 1.031
- log2 (TD/Ctrl) FSTL4 (Qvalue 0.011445): 1.312
- log2 (TD/Ctrl) POC1B-GALNT4 (Qvalue 0.011547): −1.319
- log2 (TD/Ctrl) GDPGP1 (Qvalue 0.011565): −1.43
- log2 (TD/Ctrl) CREG2 (Qvalue 0.012071): 1.949
- log2 (TD/Ctrl) CERS4 (Qvalue 0.01208): 1.131
- log2 (TD/Ctrl) ANKRD1 (Qvalue 0.012462): 2.953
- log2 (TD/Ctrl) PLEKHN1 (Qvalue 0.012462): 2.21
- log2 (TD/Ctrl) KRT75 (Qvalue 0.012583): 2.099
- log2 (TD/Ctrl) ALDH1L2 (Qvalue 0.012744): 1.303
- log2 (TD/Ctrl) GUCA1B (Qvalue 0.013456): 1.026
- log2 (TD/Ctrl) SH2D3A (Qvalue 0.013825): 1.146
- log2 (TD/Ctrl) CATSPERE (Qvalue 0.013837): −2.496
- log2 (TD/Ctrl) TFEB (Qvalue 0.014032): 1.085
- log2 (TD/Ctrl) SCN2A (Qvalue 0.014161): −2.494
- log2 (TD/Ctrl) FAM47E-STBD1 (Qvalue 0.014365): 6.132
- log2 (TD/Ctrl) IL11 (Qvalue 0.014439): 2.543
- log2 (TD/Ctrl) ICOSLG (Qvalue 0.015122): 1.337
- log2 (TD/Ctrl) HHIP (Qvalue 0.016047): 1.114
- log2 (TD/Ctrl) COL15A1 (Qvalue 0.016322): 2.733
- log2 (TD/Ctrl) ADAMTSL1 (Qvalue 0.016921): 1.769
- log2 (TD/Ctrl) AJM1 (Qvalue 0.017304): −1.327
- log2 (TD/Ctrl) RASGRP3 (Qvalue 0.017723): 1.426
- log2 (TD/Ctrl) ZNF233 (Qvalue 0.018109): −1.102
- log2 (TD/Ctrl) ADM2 (Qvalue 0.018318): 1.127
- log2 (TD/Ctrl) FMNL1 (Qvalue 0.018333): 1.446
- log2 (TD/Ctrl) PHF24 (Qvalue 0.018911): 1.839
- log2 (TD/Ctrl) MAP2 (Qvalue 0.019619): −1.138
- log2 (TD/Ctrl) BCL3 (Qvalue 0.020272): 1.728
- log2 (TD/Ctrl) EXO5 (Qvalue 0.020878): −1.023
- log2 (TD/Ctrl) POLN (Qvalue 0.020952): −1.364
- log2 (TD/Ctrl) C20orf204 (Qvalue 0.021231): −1.777
